Results taken from PMC8113459, “Selective inhibition of cullin 3 neddylation through covalent targeting DCN1 protects mice from acetaminophen-induced liver toxicity” (Nature Communications, 2021).
Values joined by “and” are separate entries in the source; they are usually repeats but may differ in a detail not shown here. Equal entries are not always repeated. Where two headings read alike, the source gives them in different places.

Assays:
[1] = tested on: p21, BIM and CDT1 proteins; experiment: Western blot, CRL1 and CRL4A substrates; format: cell-based, human; settings: THLE2, Fig. 6b
Description: (§1) Western blotting was performed as described previously. Treated cells were lysed by RIPA buffer supplemented with protease inhibitor. The expression level of indicated proteins was examined by immunoblotting analysis and GAPDH was used as the loading control. Antibodies were purchased commercially: cullin 1 (sc-17775, 1:500 dilution) and cullin 2 (sc-166506, 1:500 dilution) from Santa Cruz Biotech (Santa Cruz, CA); cullin 4A (PA5-14542, 1:1000 dilution), cullin 4B (PA5-50647, 1:1000 dilution), and DCN3 (DCUN1D3, PA5-44000, 1:1000 dilution) from Thermo Fisher Scientific (Wayne, MI); cullin 3 (2759, 1:1000), NRF2 (12721, 1:1000 dilution), HO-1 (70081, 1:1000 dilution), and Bim (2819, 1:1000 dilution) from Cell Signaling Technology (Boston, MA); DCN1 (GWB-E3D700, 1:1000 dilution) from GenWay Biotech (San Diego, CA); and cullin 5 (A302-173A, 1:500 dilution) from Bethyl Labs (Montgomery, TX). Results are representative of two independent experiments.

[2] = Pharmacokinetics: concentrations in mouse plasma and liver; format: in vivo; settings: for concentration at 1 h / concentration at 3 h / concentration at 6 h / concentration at 24 h: male, C57BL/6, mouse, ip
Description: Supplementary Table 2A. Concentrations of DI-1548 in mouse Plasma and liver after the C57BL/6 male mice were treated with a single dose of DI-1548 at 25 mg/kg via intraperitoneal (IP) injection. BLQ: below the limit of quantification.
Time point (h) Plasma (ng /mL) Liver (ng /g)
Supplementary Table 2B. Concentrations of DI-1859 in mouse Plasma and liver after the C57BL/6 male mice were treated with a single dose of DI-1859 at 25 mg/kg via intraperitoneal (IP) injection. BLQ:
Time point (h) Pl asma (ng /mL) Liver (ng /g) […]

[3] = tested on: neddylation of cullin 3; experiment: Western blot, cullin 3 neddylation in cells of different tissue types (U2OS, THLE2, MDA-MB-231, KYSE70, HCT116); format: cell-based, human
[4] = biological target: DCN1 (Homo sapiens, UniProt Q96GG9); experiment: Intact-protein mass spectrometric analysis of covalent complex formation, Method A; format: binding; settings: for Percentage of the formation of covalent complex with DCN1 protein: 37 °C
Text: MassHunter Qualitative Analysis software (Agilent) was used to analyze the data. Intact protein masses were obtained using the maximum entropy deconvolution algorithm. The mass spectrometry data in Supplementary Figs. 1–11 were generated by Method A.

[5] = tested on: NRF2 protein; experiment: Western blot, NRF2 protein accumulation in cells; format: cell-based, human
[6] = tested on: neddylation of cullin 1, 2, 4A, 4B, and 5; experiment: Western blot, neddylation of other cullin members; format: cell-based, human
Description: as §1

[7] = tested on: neddylation of cullin 3; experiment: Western blot, cullin 3 neddylation in U2OS cells; format: cell-based, human; settings: 24 h, Fig. 1c
[8] = tested on: NRF2 protein in mouse liver tissue; experiment: Pharmacodynamics: NRF2 protein in mouse liver tissue (western blot); format: in vivo; settings: single dose 25 mg/kg IP
Description: Fig. 7 DI-1859 effectively increases the level of NRF2 protein in the liver tissue and protects liver tissue damage induced by acetaminophen (APAP) in mice. a Western blotting analysis of the effect of DI-1548 or DI-1859 on the level of NRF2 protein in mouse liver tissue. Liver tissues harvested from C57BL/6 male mice treated with DI-1548 or DI-1859 at 25 mg/kg via intraperitoneal (IP) injection was lysed with RIAP buffer. The expression level of NRF2 protein was examined by western blotting. GAPDH was used a loading control. Representative images of two independent experiments are shown. b Analysis of the serum alanine aminotransferase (ALT) level in mice. The time (h) counted from APAP administration in G2 and G5-8, from DI-1859 or vehicle administration in G1, G3, and G4. Data are presented as mean ± s.d. with n = 9 (G1), 9 (G2), 8 (G3), 8 (G4), 9 G5), 9 (G6), 9 (G7), and 9 (G8). c Immunohistological analysis of mouse liver tissues. Images are representatives in each group. Images were taken with a 100× objective. Scale bar: 100 µm. d Analysis of the ROS level in mouse liver tissue. Data are presented as mean ± s.d. with n = 9 (G1), 8 (G2), 8 (G3), 8 (G4), 8 (G5), 6 (G6), 9 (G7), and 9 (G8). G1: Vehicle (qD for 3 days); G2: APAP (400 mg/kg, a single dose); G3: DI-1859 (25 mg/kg, qD for 3 days); G4: DI-1859 (50 mg/kg, qD for 3 days); G5: DI-1859 (25 mg/kg, qD for 3 days), a single dose of APAP at 400 mg/kg administered 3 h after the second dose of DI-1859 administration on day 2; G6: DI-1859 (50 mg/kg, qD for 3 days), a single dose of APAP at 400 mg/kg administered 3 h after the second dose of DI-1859 administration on day 2; G7: APAP (400 mg/kg, a single dose), followed with DI-859 at 25 mg/kg 3 h after APAP administration and two additional doses on day 2 and day 3; and G8: APAP (400 mg/kg, a single dose), followed with DI-859 at 50 mg/kg 3 h after APAP administration and two additional doses on day 2 and day 3. n = 8–9 mice per group. Source data are provided as a Source Data file.
Western blotting was performed as described previously. […]

[9] = C57BL/6 male mice, 25 mg/kg IP, 6 h
[10] = C57BL/6 male mice, 25 mg/kg IP, 24 h

Chain of DCN1 (Q96GG9 58-259 limits assumed): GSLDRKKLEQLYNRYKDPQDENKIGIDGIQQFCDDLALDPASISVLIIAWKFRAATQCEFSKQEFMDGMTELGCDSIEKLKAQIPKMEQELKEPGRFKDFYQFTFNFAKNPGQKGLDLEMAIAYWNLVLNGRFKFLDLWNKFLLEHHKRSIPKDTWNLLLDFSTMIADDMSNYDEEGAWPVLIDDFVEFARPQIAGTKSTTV

C=C(CN(C)C)C(=O)NC[C@@H](NC(=O)[C@H](Cc1nc2ccc(C(C)C)cc2s1)NC(=O)CC)C1CCCCC1 [DI-1859]
effect on protein level of CDT1 [1]: no effect | time by which the compounds were cleared from systemic circulation ([2]; 25 mg/kg IP): < 3 h | Liver concentration [2, 9]: BLQ | Plasma concentration [2, 9]: BLQ | Liver concentration [2, 10]: BLQ | Plasma concentration [2, 10]: BLQ | concentration at 1 h ([2]; liver, 25 mg/kg, C57BL/6 male mice, 25 mg/kg IP, 1 h, read-out: Liver concentration): 3280 ± 531 ng/g | concentration at 3 h ([2]; liver, 25 mg/kg, C57BL/6 male mice, 25 mg/kg IP, 3 h, read-out: Liver concentration): 30 ± 29 ng/g | concentration at 1 h ([2]; liver, 25 mg/kg, mouse liver, IP 25mg/kg, 1h, mean of 3 mice, read-out: Concentration in mouse liver, MEAN): 3280 ng/g | concentration at 1 h ([2]; liver, 25 mg/kg, mouse liver, IP 25mg/kg, 1h, single animals, read-out: Concentration in mouse liver, individual mice 1, 2, 3): 3880 ng/g | concentration at 3 h ([2]; liver, 25 mg/kg, mouse liver, IP 25mg/kg, 3h, mean of 3 mice, read-out: Concentration in mouse liver, MEAN): 30.3 ng/g | concentration at 6 h ([2]; liver, 25 mg/kg, mouse liver, IP 25mg/kg, 6h, mean of 3 mice, read-out: Concentration in mouse liver, MEAN): 2.27 ng/g | concentration at 24 h ([2]; liver, 25 mg/kg, mouse liver, IP 25mg/kg, 24h, mean, read-out: Concentration in mouse liver, MEAN): 1.46 ng/g | concentration at 24 h ([2]; liver, 25 mg/kg, mouse liver, IP 25mg/kg, 24h, single animals, read-out: Concentration in mouse liver, individual mice 1, 2, 3): 1.56 ng/g | concentration at 1 h ([2]; plasma, 25 mg/kg, C57BL/6 male mice, 25 mg/kg IP, 1 h, read-out: Plasma concentration): 1.74 ± 0.292 µg/mL | concentration at 3 h ([2]; plasma, 25 mg/kg, C57BL/6 male mice, 25 mg/kg IP, 3 h, read-out: Plasma concentration): 0.028 ± 0.012 µg/mL | concentration at 1 h ([2]; plasma, 25 mg/kg, mouse plasma, IP 25mg/kg, 1h, mean of 3 mice, read-out: Concentration in mouse plasma, MEAN): 1.74 µg/mL | concentration at 1 h ([2]; plasma, 25 mg/kg, mouse plasma, IP 25mg/kg, 1h, single animals, read-out: Concentration in mouse plasma, individual mice 1, 2, 3): 2.07 µg/mL | concentration at 3 h ([2]; plasma, 25 mg/kg, mouse plasma, IP 25mg/kg, 3h, mean of 3 mice, read-out: Concentration in mouse plasma, MEAN): 0.0279 µg/mL | concentration at 6 h ([2]; plasma, 25 mg/kg, mouse plasma, IP 25mg/kg, 6h, mean (only one mouse above the limit of quantification), read-out: Concentration in mouse plasma, MEAN): 0.00104 µg/mL | concentration at 6 h ([2]; plasma, 25 mg/kg, mouse plasma, IP 25mg/kg, 6h, single animals, limit of quantification 1 ng/mL, read-out: Concentration in mouse plasma, individual mice 1, 2, 3): < 0.001 µg/mL | concentration at 24 h ([2]; plasma, 25 mg/kg, mouse plasma, IP 25mg/kg, 24h, single animals, limit of quantification 1 ng/mL, read-out: Concentration in mouse plasma, individual mice 1, 2, 3): < 0.001 µg/mL | Concentration in mouse liver, individual mice 1, 2, 3 ([2]; mouse liver, IP 25mg/kg, 1h, single animals, 25 mg/kg): 3079.98 ng/g and 2879.94 ng/g | Concentration in mouse liver, individual mice 1, 2, 3 ([2]; mouse liver, IP 25mg/kg, 3h, single animals, 25 mg/kg): 13.04 ng/g and 64.07 ng/g and 13.91 ng/g | Concentration in mouse liver, individual mice 1, 2, 3 ([2]; mouse liver, IP 25mg/kg, 6h, single animals, 25 mg/kg): 1.59 ng/g | Concentration in mouse liver, individual mice 1, 2, 3 ([2]; mouse liver, IP 25mg/kg, 24h, single animals, 25 mg/kg): 1.41 ng/g and 1.40 ng/g | Concentration in mouse plasma, individual mice 1, 2, 3 ([2]; mouse plasma, IP 25mg/kg, 1h, single animals, 25 mg/kg): 1.54972 µg/mL and 1.58865 µg/mL | Concentration in mouse plasma, individual mice 1, 2, 3 ([2]; mouse plasma, IP 25mg/kg, 3h, single animals, 25 mg/kg): 0.03602 µg/mL and 0.01464 µg/mL and 0.03318 µg/mL | Concentration in mouse plasma, individual mice 1, 2, 3 ([2]; mouse plasma, IP 25mg/kg, 6h, single animals, limit of quantification 1 ng/mL, 25 mg/kg): <0.001 µg/mL and 0.00104 µg/mL | Concentration in mouse plasma, individual mice 1, 2, 3 ([2]; mouse plasma, IP 25mg/kg, 24h, single animals, limit of quantification 1 ng/mL): <0.001 µg/mL | concentration achieving profound inhibition of the neddylation of cullin 3 [3]: 1 to 3 nM | concentration as low as which the level of neddylated cullin 3 is significantly reduced [3]: ≤ 0.3 nM | covalent complex formation / reaction kinetics with DCN1 protein (in words) [4]: very fast covalent complex formation | Percentage of the formation of covalent complex with DCN1 protein ([4]; 10 min incubation, 1.2-fold excess inhibitor): 100% | Percentage of the formation of covalent complex with DCN1 protein ([4]; 60 min (1 h) incubation): 100% | Percentage of the formation of covalent complex with DCN1 protein ([4]; 180 min (3 h) incubation): 100% | times more potent than DI-591 in inducing accumulation of NRF2 protein [5]: 100–1000 times | inhibition of neddylation of cullin members ([6]; THLE2, Fig. 6b): similar, high selectivity | selectivity in inhibition of the neddylation of cullin 3 over other cullin members ([6]; a number of cell lines): 1000 fold | concentration as low as which cullin 3 neddylation is inhibited [7]: ≤ 1 nM | potency in inhibition of cullin 3 neddylation compared with DI-591 [7]: much more potent than DI-591 | times more potent than DI-591 in inhibition of cullin 3 neddylation [7]: ~ 1000 times | upregulation of NRF2 protein in the mouse liver ([8]; C57BL/6 male mice): robust upregulation | persistence of upregulation of NRF2 in mouse liver [8]: > 24 h
